In patent publication US12071441B2, “10-(di(phenyl)methyl)-4-hydroxy-8,9,9A,10-tetrahydro-7H-pyrrolo[1′,2′:4,5]pyrazino[1,2-b]pyridazine-3,5-dione derivatives and related compounds as inhibitors of the orthomyxovirus replication for treating influenza” (Novartis AG, priority 2018, dated 2024):

Tests used:
Experiment in all cases: microbe, parasite or virus in culture
Assay type in all cases: cell-based
[1] = tested on: influenza A virus minigenome (PB2, PB1, PA, NP; luciferase reporter) in 293T cells, RNP_Alaska; settings: HEK-293T, 48 h
[2] = tested on: influenza A virus minigenome (PB2, PB1, PA, NP; luciferase reporter) in 293T cells, RNP_CAL; settings: HEK-293T, 48 h, read-out: RNP_CAL_EC50
[3] = tested on: influenza A virus minigenome (PB2, PB1, PA, NP; luciferase reporter) in 293T cells, RNP_Hubei; settings: HEK-293T, 48 h

SMILES	EC50 [1]	EC50 [2]	EC50 [3]
COc1ccccc1[C@@H](c1ccc(F)cc1)[C@H]1[C@H]2CCCN2C(=O)c2c(O)c(=O)cnn21 [Example 25, (9aR,10S)-10-((R)-(4-fluorophenyl)(2-methoxyphenyl)methyl)-4-hydroxy-8,9,9a,10-tetrahydro-7H-pyrrolo[1′,2′:4,5]pyrazino[1,2-b]pyridazine-3,5-dione]	100 to 1000 nM	100 to 1000 nM	100 to 1000 nM
COC(=O)Oc1c2n(ncc1=O)[C@@H]([C@H](c1cccc(F)c1)c1cccc(F)c1F)[C@H]1CCCN1C2=O [Example 115, (9aR,10S)-10-((R)-(2,3-difluorophenyl)(3-fluorophenyl)methyl)-3,5-dioxo-3,5,8,9,9a,10-hexahydro-7H-pyrrolo[1′,2′:4,5]pyrazino[1,2-b]pyridazin-4-yl methyl carbonate]	< 100 nM	< 100 nM	< 100 nM
COc1cccc([C@@H](c2ccc(F)cc2)[C@H]2[C@H]3CCCN3C(=O)c3c(O)c(=O)cnn32)c1 [Example 24, (9aR,10S)-10-((R)-(4-fluorophenyl)(3-methoxyphenyl)methyl)-4-hydroxy-8,9,9a,10-tetrahydro-7H-pyrrolo[1′,2′:4,5]pyrazino[1,2-b]pyridazine-3,5-dione]	100 to 1000 nM	100 to 1000 nM	100 to 1000 nM
COCCC(=O)Oc1c2n(ncc1=O)[C@@H]([C@H](c1cccc(F)c1)c1cccc(F)c1F)[C@H]1CCCN1C2=O [Example 112, (9aR,10S)-10-((R)-(2,3-difluorophenyl)(3-fluorophenyl)methyl)-3,5-dioxo-3,5,8,9,9a,10-hexahydro-7H-pyrrolo[1′,2′:4,5]pyrazino[1,2-b]pyridazin-4-yl 3-methoxypropanoate]	< 100 nM	< 100 nM	< 100 nM
Cc1oc(=O)oc1COc1c2n(ncc1=O)[C@@H]([C@H](c1ccccc1)c1cccc(F)c1F)[C@H]1CCCN1C2=O [Example 43, (9aR,10S)-10-((R)-(2,3-difluorophenyl)(phenyl)methyl)-4-((5-methyl-2-oxo-1,3-dioxol-4-yl)methoxy)-8,9,9a,10-tetrahydro-7H-pyrrolo[1′,2′:4,5]pyrazino[1,2-b]pyridazine-3,5-dione]	< 100 nM	< 100 nM	< 100 nM
COC(C)(C)C(=O)Oc1c2n(ncc1=O)[C@@H]([C@H](c1ccccc1)c1cccc(F)c1F)[C@H]1CCCN1C2=O [Example 40, (9aR,10S)-10-((R)-(2,3-difluorophenyl)(phenyl)methyl)-3,5-dioxo-3,5,8,9,9a,10-hexahydro-7H-pyrrolo[1′,2′:4,5]pyrazino[1,2-b]pyridazin-4-yl 2-methoxy-2-methylpropanoate]	< 100 nM	< 100 nM	< 100 nM
CC(C)OC(=O)Oc1c2n(ncc1=O)[C@@H]([C@H](c1ccccc1)c1cccc(F)c1F)[C@H]1CCCN1C2=O [Example 34, (9aR,10S)-10-((R)-(2,3-difluorophenyl)(phenyl)methyl)-3,5-dioxo-3,5,8,9,9a,10-hexahydro-7H-pyrrolo[1′,2′:4,5]pyrazino[1,2-b]pyridazin-4-yl isopropyl carbonate]	< 100 nM	< 100 nM	< 100 nM
COCCOC(=O)OCOc1c2n(ncc1=O)[C@@H]([C@H](c1cccc(F)c1)c1cccc(F)c1F)[C@H]1CCCN1C2=O [Example 99, (((9aR,10S)-10-((R)-(2,3-difluorophenyl)(3-fluorophenyl)methyl)-3,5-dioxo-3,5,8,9,9a,10-hexahydro-7H-pyrrolo[1′,2′:4,5]pyrazino[1,2-b]pyridazin-4-yl)oxy)methyl (2-methoxyethyl) carbonate]	< 100 nM	< 100 nM	< 100 nM
Cc1oc(=O)oc1COc1c2n(ncc1=O)[C@@H]([C@H](c1ccc(F)cc1)c1cccc(F)c1F)[C@H]1CCCN1C2=O [Example 80, (9aR,10S)-10-((R)-(2,3-difluorophenyl)(4-fluorophenyl)methyl)-4-((5-methyl-2-oxo-1,3-dioxol-4-yl)methoxy)-8,9,9a,10-tetrahydro-7H-pyrrolo[1′,2′:4,5]pyrazino[1,2-b]pyridazine-3,5-dione]	< 100 nM	< 100 nM	< 100 nM
CC(C)OC(=O)Oc1c2n(ncc1=O)[C@@H]([C@H](c1ccc(F)cc1)c1cccc(F)c1F)[C@H]1CCCN1C2=O [Example 88, (9aR,10S)-10-((R)-(2,3-difluorophenyl)(4-fluorophenyl)methyl)-3,5-dioxo-3,5,8,9,9a,10-hexahydro-7H-pyrrolo[1′,2′:4,5]pyrazino[1,2-b]pyridazin-4-yl isopropyl carbonate]	< 100 nM	< 100 nM	< 100 nM
Cc1ccccc1[C@H](c1cccc(C)c1F)[C@H]1[C@H]2CCCN2C(=O)c2c(O)c(=O)cnn21 [Example 17, (9aR,10S)-10-((R)-(2-fluoro-3-methylphenyl)(o-tolyl)methyl)-4-hydroxy-8,9,9a,10-tetrahydro-7H-pyrrolo[1′,2′:4,5]pyrazino[1,2-b]pyridazine-3,5-dione]	100 to 1000 nM	100 to 1000 nM	< 100 nM
CC(C)C(=O)Oc1c2n(ncc1=O)[C@@H]([C@H](c1ccccc1)c1cccc(F)c1F)[C@H]1CCCN1C2=O [Example 31, (9aR,10S)-10-((R)-(2,3-difluorophenyl)(phenyl)methyl)-3,5-dioxo-3,5,8,9,9a,10-hexahydro-7H-pyrrolo[1′,2′:4,5]pyrazino[1,2-b]pyridazin-4-yl isobutyrate]	< 100 nM	< 100 nM	< 100 nM
O=C(Oc1c2n(ncc1=O)[C@@H]([C@H](c1ccccc1)c1cccc(F)c1F)[C@H]1CCCN1C2=O)OC1CCOCC1 [Example 74, (9aR,10S)-10-((R)-(2,3-difluorophenyl)(phenyl)methyl)-3,5-dioxo-3,5,8,9,9a,10-hexahydro-7H-pyrrolo[1′,2′:4,5]pyrazino[1,2-b]pyridazin-4-yl (tetrahydro-2H-pyran-4-yl) carbonate]	< 100 nM	< 100 nM	< 100 nM
O=C1c2c(O)c(=O)cnn2[C@@H]([C@@H](c2ccc(F)cc2)c2ccc(OC(F)(F)F)cc2)[C@H]2CCCN12 [Example 5, (9aR,10S)-10-((R)-(4-fluorophenyl)(4-(trifluoromethoxy)phenyl)methyl)-4-hydroxy-8,9,9a,10-tetrahydro-7H-pyrrolo[1′,2′:4,5]pyrazino[1,2-b]pyridazine-3,5-dione]	100 to 1000 nM	100 to 1000 nM	100 to 1000 nM
Cc1oc(=O)oc1COc1c2n(ncc1=O)[C@@H]([C@H](c1cccc(F)c1)c1cccc(F)c1F)[C@H]1CCCN1C2=O [Example 116, (9aR,10S)-10-((R)-(2,3-difluorophenyl)(3-fluorophenyl)methyl)-4-((5-methyl-2-oxo-1,3-dioxol-4-yl)methoxy)-8,9,9a,10-tetrahydro-7H-pyrrolo[1′,2′:4,5]pyrazino[1,2-b]pyridazine-3,5-dione]	< 100 nM	< 100 nM	< 100 nM
CC(C)CC(=O)Oc1c2n(ncc1=O)[C@@H]([C@H](c1ccccc1)c1cccc(F)c1F)[C@H]1CCCN1C2=O [Example 60, (9aR,10S)-10-((R)-(2,3-difluorophenyl)(phenyl)methyl)-3,5-dioxo-3,5,8,9,9a,10-hexahydro-7H-pyrrolo[1′,2′:4,5]pyrazino[1,2-b]pyridazin-4-yl 3-methylbutanoate]	< 100 nM	< 100 nM	< 100 nM
Cc1cccc([C@H](c2ccc(F)cc2)[C@H]2[C@H]3CCCN3C(=O)c3c(O)c(=O)cnn32)c1 [Example 10, (9aR,10S)-10-((S)-(4-fluorophenyl)(m-tolyl)methyl)-4-hydroxy-8,9,9a,10-tetrahydro-7H-pyrrolo[1′,2′:4,5]pyrazino[1,2-b]pyridazine-3,5-dione]	< 100 nM	< 100 nM	< 100 nM
Cc1cccc([C@@H](c2cccc(F)c2)[C@H]2[C@H]3CCCN3C(=O)c3c(O)c(=O)cnn32)c1F [Example 12, (9aR,10S)-10-((R)-(2-fluoro-3-methylphenyl)(3-fluorophenyl)methyl)-4-hydroxy-8,9,9a,10-tetrahydro-7H-pyrrolo[1′,2′:4,5]pyrazino[1,2-b]pyridazine-3,5-dione]	100 to 1000 nM	100 to 1000 nM	100 to 1000 nM
CC(C)C(=O)OCOc1c2n(ncc1=O)[C@@H]([C@H](c1cccc(F)c1)c1cccc(F)c1F)[C@H]1CCCN1C2=O [Example 108, (((9aR,10S)-10-((R)-(2,3-difluorophenyl)(3-fluorophenyl)methyl)-3,5-dioxo-3,5,8,9,9a,10-hexahydro-7H-pyrrolo[1′,2′:4,5]pyrazino[1,2-b]pyridazin-4-yl)oxy)methyl isobutyrate]	< 100 nM	< 100 nM	< 100 nM
CCN(CC)C(=O)OCOc1c2n(ncc1=O)[C@@H]([C@H](c1ccccc1)c1cccc(F)c1F)[C@H]1CCCN1C2=O [Example 67, (((9aR,10S)-10-((R)-(2,3-difluorophenyl)(phenyl)methyl)-3,5-dioxo-3,5,8,9,9a,10-hexahydro-7H-pyrrolo[1′,2′:4,5]pyrazino[1,2-b]pyridazin-4-yl)oxy)methyl diethylcarbamate]	≥ 1000 nM	≥ 1000 nM	≥ 1000 nM
O=C1c2c(O)c(=O)cnn2[C@@H]([C@@H](c2ccc(F)cc2)c2cccc(OC(F)(F)F)c2)[C@H]2CCCN12 [Example 4, (9aR,10S)-10-((S)-(4-fluorophenyl)(3-(trifluoromethoxy)phenyl)methyl)-4-hydroxy-8,9,9a,10-tetrahydro-7H-pyrrolo[1′,2′:4,5]pyrazino[1,2-b]pyridazine-3,5-dione]	100 to 1000 nM	< 100 nM	< 100 nM
